Measured values taken from ChEMBL document CHEMBL3351405, “Novel tricyclic pyrazolopyrimidines as potent and selective GPR119 agonists” (Bioorg Med Chem Lett, 2014).
pEC50: −log10 of the molar value. Converted amounts (≈) assume the structure as drawn.

Experiments:
[1] = molecular target: T1, Glucose-dependent insulinotropic receptor (Homo sapiens, UniProt Q8TDV5); experiment: Agonist activity at human GPR119 overexpressed in CHO cells assessed as increase in cellular cAMP production by HTRF method; format: functional, cell-based
T1 sequence (Q8TDV5 whole entry): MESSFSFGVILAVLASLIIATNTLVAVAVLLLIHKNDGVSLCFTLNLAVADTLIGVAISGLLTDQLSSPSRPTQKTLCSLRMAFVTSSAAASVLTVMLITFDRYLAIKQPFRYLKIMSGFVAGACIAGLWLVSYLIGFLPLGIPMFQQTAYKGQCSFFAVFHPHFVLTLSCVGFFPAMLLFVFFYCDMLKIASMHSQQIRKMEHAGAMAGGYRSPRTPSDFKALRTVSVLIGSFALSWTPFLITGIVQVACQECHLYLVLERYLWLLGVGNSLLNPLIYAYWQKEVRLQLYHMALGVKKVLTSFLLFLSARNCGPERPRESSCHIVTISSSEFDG

[2] = molecular target: T2, Glucose-dependent insulinotropic receptor (Homo sapiens) (UniProt Q8TDV5); experiment: Agonist activity at human GPR119 overexpressed in CHO cells assessed as increase in cellular cAMP production by HTRF method relative to AR231453; format: functional, cell-based
T2 sequence (whole entry): T1 sequence (Q8TDV5 whole entry)

[3] = Clearance in human liver microsomes assessed as extraction ratio; format: ADME; conditions: read-out: ERH
[4] = Solubility of the compound at pH 6.8; format: physicochemical; conditions: buffer
Mus musculus [5] = experiment: Dose normalized AUC in po dosed Balb/C mouse; format: ADME, organism-based; conditions: in vivo
[6] = molecular target: T3, Glucose-dependent insulinotropic receptor (Mus musculus, UniProt Q7TQP3); experiment: Agonist activity at mouse GPR119 overexpressed in CHO cells assessed as increase in cellular cAMP production by HTRF method; format: functional, cell-based
T3 sequence (Q7TQP3 whole entry): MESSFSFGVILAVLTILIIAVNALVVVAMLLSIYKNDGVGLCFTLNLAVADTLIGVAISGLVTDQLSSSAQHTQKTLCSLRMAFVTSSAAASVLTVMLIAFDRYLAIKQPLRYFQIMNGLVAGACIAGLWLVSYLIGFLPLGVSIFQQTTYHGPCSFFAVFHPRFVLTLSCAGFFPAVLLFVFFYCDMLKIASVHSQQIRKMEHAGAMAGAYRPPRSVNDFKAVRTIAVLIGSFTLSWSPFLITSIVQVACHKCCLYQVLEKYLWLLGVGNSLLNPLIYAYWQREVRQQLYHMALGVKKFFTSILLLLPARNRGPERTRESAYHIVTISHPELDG

[7] = molecular target: T4, Glucose-dependent insulinotropic receptor (Mus musculus) (UniProt Q7TQP3); experiment: Agonist activity at mouse GPR119 overexpressed in CHO cells assessed as increase in cellular cAMP production by HTRF method relative to AR231453; format: functional, cell-based
T4 sequence (whole entry): T3 sequence (Q7TQP3 whole entry)

Mus musculus [8] = experiment: Increase in plasma GLP1 level in 16 hrs fasted wild-type C57BL/6J mouse at 10 mg/kg, po administered as single dose 30 mins prior to glucose excursion measured after 2 mins by ELISA relative to vehicle-treated control; format: functional
Rattus norvegicus [9] = experiment: Antidiabetic activity in ZDF fa/fa rat model assessed as reduction in glucose AUC at 3 mg/kg, po qd administered 1 hr prior to glucose bolus after 2 weeks by OGTT relative to vehicle-treated control; format: functional, Zucker; design: scale not given: the % may be the effect or the level left
Rattus norvegicus [10] = experiment: Antidiabetic activity in ZDF fa/fa rat model assessed as reduction in glucose AUC at 10 mg/kg, po qd administered 1 hr prior to glucose bolus after 2 weeks by OGTT relative to vehicle-treated control; format: functional, Zucker; design: scale not given: the % may be the effect or the level left
Rattus norvegicus [11] = experiment: Antidiabetic activity in ZDF fa/fa rat model assessed as reduction in glucose AUC at 30 mg/kg, po qd administered 1 hr prior to glucose bolus after 2 weeks by OGTT relative to vehicle-treated control; format: functional, Zucker; design: scale not given: the % may be the effect or the level left
[12] = Clearance in rat liver microsomes assessed as extraction ratio; format: ADME; conditions: read-out: ERH
[13] = Clearance in mouse liver microsomes assessed as extraction ratio; format: ADME; conditions: read-out: ERH

| pEC50 [1] | Efficacy [2] | hepatic extraction ratio [3] | pEC50 [6] | Efficacy [7] | Structure (SMILES) | also measured |
| --- | --- | --- | --- | --- | --- | --- |
| 7.68 | 87% | 0.6 |  |  | Fc1cccc(CC2(C3CC3)NCc3cnc4c(-c5ccc(C(F)(F)F)cc5)cnn4c32)c1 (racemic) |  |
| 8.15 | 55% |  |  |  | COC(=O)C1(Cc2ccccc2)CCc2cnc3c(-c4ccc(C#N)cc4)cnn3c21 (racemic) |  |
| 8.70 | 88% | 0.9 |  |  | OCc1nn2c3c(cnc2c1-c1ccc(C(F)(F)F)cc1)CN[C@]3(Cc1cccc(F)c1)C1CC1 | solubility [4]: 6 µM (≈ 2.89 µg/mL) |
| 6.28 | 58% | 0.51 |  |  | COC(=O)[C@@]1(Cc2cccc(F)c2)NCc2cnc3c(-c4ccc(C(F)(F)F)cc4)c(C(C)(C)O)nn3c21 |  |
| 7.70 | 60% |  |  |  | CCOC(=O)C1(Cc2ccccc2)CCc2cnc3c(-c4ccc(Oc5ccccc5)cc4)cnn3c21 (racemic) |  |
| 7.46 |  | 0.85 |  |  | [2H]C([2H])(O)c1nn2c3c(cnc2c1-c1ccc(C(F)(F)F)nc1)CN[C@]3(Cc1cccc(F)c1)C(=O)OC | AUC/dose (Mus musculus [5]): 6.56 µM·h; solubility [4]: 83 µM (≈ 41.8 µg/mL) |
| 7.00 | 56% |  |  |  | CCOC(=O)C1(Cc2ccccc2)CCCCCc2cnc3c(-c4ccc(C(F)(F)F)cc4)cnn3c21 (racemic) |  |
| 8.10 | 75% | 0.71 | 7.57 | 59% | CCOC(=O)[C@@]1(Cc2ccccc2)CCCc2cnc3c(-c4ccc(C(F)(F)F)cc4)cnn3c21 |  |
| 8.22 | 82% | 0.93 |  |  | OCc1nn2c3c(cnc2c1-c1ccc(C(F)(F)F)nc1)CN[C@]3(Cc1cccc(F)c1)C1CC1 | solubility [4]: 36 µM (≈ 17.4 µg/mL) |
| 8.70 | 90% | 0.9 |  |  | COCCN(C)C(=O)[C@@]1(Cc2cccc(F)c2)NCc2cnc3c(-c4ccc(C(F)(F)F)cc4)cnn3c21 | AUC/dose (Mus musculus [5]): 0.07 µM·h; solubility [4]: < 5 µM |
| 8.30 | 99% | 0.82 |  |  | COC(=O)[C@@]1(Cc2cccc(F)c2)NCc2cnc3c(-c4ccc(C(F)(F)F)cc4)c(CO)nn3c21 | Efficacy ([2]; tested as the 2H-labelled form): 103%; AUC/dose (Mus musculus [5]): 7.65 µM·h; solubility [4]: 58 µM (≈ 29 µg/mL); Activity (Mus musculus [8]): 29%; Activity (Rattus norvegicus [9]): 1%; Activity (Rattus norvegicus [10]): 11%; Activity (Rattus norvegicus [11]): 37% |
| 9.00 | 80% | 0.3 | 7.96 | 62% | CCOC(=O)[C@](C)(Cc1ccccc1)c1c(C)cnc2c(-c3ccc(C(F)(F)F)cc3)cnn12 | hepatic extraction ratio [12]: 0.3; hepatic extraction ratio [13]: 0.3; AUC/dose (Mus musculus [5]): 0.6 µM·h |
| 6.67 | 55% |  |  |  | CCOC(=O)C1(Cc2ccccc2)c2c(cnc3c(-c4ccc(C(F)(F)F)cc4)cnn23)CN1C (racemic) |  |
| 8.52 | 92% | 0.96 | 8.05 | 81% | COC(=O)[C@@]1(Cc2cccc(F)c2)CCc2cnc3c(-c4ccc(C(F)(F)F)cc4)cnn3c21 |  |
| 9.30 | 85% | 0.96 | 8.10 | 80% | CCOC(=O)[C@@]1(Cc2ccccc2)CCc2cnc3c(-c4ccc(C(F)(F)F)cc4)cnn3c21 | hepatic extraction ratio [12]: 0.6; hepatic extraction ratio [13]: 0.6; AUC/dose (Mus musculus [5]): 0.3 µM·h |
| 6.36 | 77% |  |  |  | CC1(Cc2cccc(F)c2)NCc2cnc3c(-c4ccc(C(F)(F)F)cc4)cnn3c21 (racemic) |  |
| 8.52 | 73% | 0.79 | 7.96 | 78% | CCOC(=O)[C@@]1(Cc2ccccc2)CCc2cnc3c(-c4ccc(Cl)cc4)cnn3c21 |  |

| pEC50 [1] | Efficacy [2] | hepatic extraction ratio [3] | pEC50 [6] | Efficacy [7] | Structure (SMILES) | also measured |
| --- | --- | --- | --- | --- | --- | --- |
| 7.70 | 74% | 0.92 |  |  | COC(=O)[C@@]1(Cc2cccc(F)c2)NCc2cnc3c(-c4ccc(C(F)(F)F)cc4)c(C(N)=O)nn3c21 | solubility [4]: 39 µM (≈ 20 µg/mL) |
| 7.64 | 83% |  | 7.62 | 72% | CCOC(=O)[C@](C)(Cc1ccccc1)c1ccnc2c(-c3ccc(C(F)(F)F)cc3)c(C)nn12 |  |
| 8.52 | 75% |  | 8.10 | 73% | CCOC(=O)[C@](C)(Cc1ccccc1)c1c(Cl)cnc2c(-c3ccc(C(F)(F)F)cc3)cnn12 |  |
| < 8.00 | 15% |  |  |  | CCOC(=O)[C@](C)(Cc1ccccc1)c1cc(C)nc2c(-c3ccc(Cl)cc3)cnn12 |  |
| 6.53 | 81% |  |  |  | CCOC(=O)C1(Cc2cccc(F)c2)NC(=O)c2cnc3c(-c4ccc(C(F)(F)F)cc4)cnn3c21 (racemic) |  |
| 8.70 | 82% | 0.93 | 7.77 | 91% | COC(=O)C1(Cc2ccccc2)CCc2cnc3c(-c4ccc(C(F)(F)F)cc4)cnn3c21 (racemic) |  |
| 7.47 | 77% | 0.96 | 7.46 | 78% | COC(=O)C1(Cc2ccccc2)OCc2cnc3c(-c4ccc(C(F)(F)F)cc4)cnn3c21 (racemic) |  |
| 8.52 | 91% | 0.95 | 7.85 | 88% | COC(=O)[C@@]1(Cc2cccc(F)c2)NCc2cnc3c(-c4ccc(C(F)(F)F)cc4)cnn3c21 | AUC/dose (Mus musculus [5]): 0.31 µM·h |
| 7.82 | 101% | 0.82 |  |  | COC(=O)[C@@]1(Cc2cccc(F)c2)NCc2cnc3c(-c4ccc(C(F)(F)F)nc4)c(CO)nn3c21 | Efficacy ([2]; tested as the 2H-labelled form): 87%; solubility [4]: 99 µM (≈ 49.6 µg/mL) |
| 7.96 | 83% | 0.88 | 7.82 | 76% | COC(=O)C1(Cc2ccccc2)COc2cnc3c(-c4ccc(C(F)(F)F)cc4)cnn3c21 (racemic) |  |
| 7.60 | 75% | 0.75 | 7.60 | 80% | CCOC(=O)[C@@]1(Cc2ccccc2)CNc2cnc3c(-c4ccc(C(F)(F)F)cc4)cnn3c21 |  |
| 7.42 | 66% |  |  |  | CCOC(=O)[C@]1(Cc2ccccc2)CCc2cnc3c(-c4ccc(C(F)(F)F)cc4)cnn3c21 |  |
| 7.13 | 66% |  |  |  | COC(=O)C1(Cc2ccccc2)CCCCc2cnc3c(-c4ccc(C(F)(F)F)cc4)cnn3c21 (racemic) |  |
| 8.70 |  | 0.83 |  |  | [2H]C([2H])(O)c1nn2c3c(cnc2c1-c1ccc(C(F)(F)F)cc1)CN[C@]3(Cc1cccc(F)c1)C(=O)OC | AUC/dose (Mus musculus [5]): 7.89 µM·h; solubility [4]: 26 µM (≈ 13.1 µg/mL) |
| 7.14 | 84% | 0.97 | 6.87 | 80% | COC(=O)[C@@]1(Cc2cccc(F)c2)N=Cc2cnc3c(-c4ccc(C(F)(F)F)cc4)cnn3c21 |  |
| 6.90 | 81% | 0.89 |  |  | COC(=O)C1(Cc2ccccc2)CCc2cnc3c(-c4ccc(S(C)(=O)=O)cc4)cnn3c21 (racemic) |  |
